No end group written: not given here.
Key:
[1] = test system: human umbilical cord primary endothelial cells (HUVEC); assay: In vitro proliferation assay to test toxicity (Assay 2, crystal violet staining); format: cell-based; settings: 10 μM up to 40 μM final concentration, 72 h, FIG. 2
Description: (§1) The BXPC3 cell line from primary adenocarcinoma of human pancreas was provided by the Biomedical Research Institute (IRB) of Barcelona, and human umbilical cord primary endothelial cells (HUVEC) were obtained directly by the investigator and stored in liquid nitrogen in the laboratory. BXPC3 cells were maintained in RPMI-1640 culture medium (Gibco) supplemented with 10% fetal bovine serum and antibiotics. HUVEC cells were maintained in M199 culture medium (Gibco) supplemented with 20% fetal bovine serum, endothelial cell growth supplement (ECGS), Heparin (Hep) and antibiotics. Cultures were maintained in the cell incubator in a humid atmosphere at 37° C. containing 5% CO2.
(§2) The different peptides to be tested were easily dissolved in DMSO at a concentration of 50 mM and subsequently a 5 mM intermediate dilution was prepared in Dulbecco's PBS which was subjected to two short cycles of sonication, which retendered the peptides completely soluble. […]
(§3) Assays with the different peptides were performed following the protocol explained below. […] Once resuspended in culture medium, they were counted in Newbauer's chamber after a 1:1 dilution with trypan blue. […]
The optical density values per well were obtained by a Biotek Synergy™2 multi-detection microplate reader, using a 590 nm filter and by scanning reading, obtaining the mean values per well.

[2] = test system: human pancreatic tumor cell line BXPC3; assay: In vitro proliferation assay, cancer growth-inhibitory activity (Assay 1, crystal violet staining); format: cell-based; settings: BXPC3 cells, peptide 20 μM final concentration, 72 h, FIG. 1-A
Description: as §1, §2, §3
The optical density values per well were obtained by a Biotek Synergy™2 multi-detection microplate reader, using a 590 nm filter and by scanning reading, obtaining the mean values per well. […]

Substance | effect on the growth of normal non-transformed cells (toxicity) [1] | inhibitory capacity on cancer cell growth (in words) [2]
Ac-CFEISKY-NH2 [Peptide P1C, CH3-C(O)-CFEISKY-NH2] | did not affect the growth | –
CFEISKY-NH2 [Peptide P1A, variant of the P1C peptide wherein the N-terminal end is free and the C-terminal end is amidated] | – | remarkable inhibitory capacity
CH3-C(O)-CFEVSKY-NH2 (Ac-CFEVSKY-NH2) [Peptide P1B, variant of the P1C peptide wherein the isoleucine is substituted by a valine] | – | remarkable inhibitory capacity
